biological target: T1, PI3Kδ (Homo sapiens, UniProt O00329); test: PI3Kδ inhibition, modified PIK3CD Adapta TR-FRET assay; format: biochemical; conditions: recombinant GST-tagged full length PIK3CD co-expressed with PIK3R1 (p85α); 2 μM ATP, 50 μM PIP2; read-out: PI3Kδ Inhibition (pIC50) (converted)
T1 construct: The protein is full length and co-expressed with untagged PIK3R1; GST; purchased Invitrogen PV5274
Description: The activity of compounds as PI3Kδ inhibitors may be determined by a variety of methods, including in vitro and in vivo methods. The following in vitro assay measures a test compound's ability to inhibit PI3Kδ-mediated phosphorylation of PIP2 and ATP.
Recombinant GST-tagged PIK3CD is purchased from Invitrogen (Part Number: PV5274). The protein is full length and co-expressed with untagged PIK3R1, phosphoinositide-3-kinase regulatory subunit 1 (p85α). The protein is stored at −20° C. in 50 mM TRIS (pH 7.5), 150 mM NaCl, 0.5 mM EDTA, 0.02% Triton® X-100, 2 mM DTT, and 50% glycerol.
A modified PIK3CD Adapta® assay (Invitrogen, Carlsbad, Calif.) is used to measure PI3Kδ inhibition of the example compounds. The assay has two phases. In the first phase, kinase reaction components, which include the enzyme (PIK3CD), substrates (PIP2, ATP), test compound (inhibitor), and assay buffer are added to each well, and the reaction is allowed to incubate for a pre-determined period of time. […] In the presence of the inhibitor, the amount of ADP formed by the kinase reaction is reduced, and the resulting intact antibody-tracer interaction maintains a high TR-FRET signal.
The reaction buffer contains 50 mM Hepes (pH 7.5), 3 mM MgCl2, 1 mM EGTA, 100 mM NaCl, 0.03% CHAPS; 2 mM DTT is added fresh prior to each experiment. […] Next, test compounds (2 μL) from a source plate (5% dilution plate) are introduced into the wells. The final DMSO concentration in each assay well is 1%. […] Other wells contain test compounds serially diluted across the plate 11 times for a total of 12 data points. The kinase reactions are carried out at room temperature and are initiated by the addition of 4 μL of solution containing 2 μM ATP and 50 μM PIP2. […] This emission signal is referenced or “ratioed” to the emission from Eu at 620 nm. […] The percent inhibition for a given inhibitor concentration is computed from % conversion for the reaction and for the positive and negative controls.

T1 sequence (O00329 whole entry): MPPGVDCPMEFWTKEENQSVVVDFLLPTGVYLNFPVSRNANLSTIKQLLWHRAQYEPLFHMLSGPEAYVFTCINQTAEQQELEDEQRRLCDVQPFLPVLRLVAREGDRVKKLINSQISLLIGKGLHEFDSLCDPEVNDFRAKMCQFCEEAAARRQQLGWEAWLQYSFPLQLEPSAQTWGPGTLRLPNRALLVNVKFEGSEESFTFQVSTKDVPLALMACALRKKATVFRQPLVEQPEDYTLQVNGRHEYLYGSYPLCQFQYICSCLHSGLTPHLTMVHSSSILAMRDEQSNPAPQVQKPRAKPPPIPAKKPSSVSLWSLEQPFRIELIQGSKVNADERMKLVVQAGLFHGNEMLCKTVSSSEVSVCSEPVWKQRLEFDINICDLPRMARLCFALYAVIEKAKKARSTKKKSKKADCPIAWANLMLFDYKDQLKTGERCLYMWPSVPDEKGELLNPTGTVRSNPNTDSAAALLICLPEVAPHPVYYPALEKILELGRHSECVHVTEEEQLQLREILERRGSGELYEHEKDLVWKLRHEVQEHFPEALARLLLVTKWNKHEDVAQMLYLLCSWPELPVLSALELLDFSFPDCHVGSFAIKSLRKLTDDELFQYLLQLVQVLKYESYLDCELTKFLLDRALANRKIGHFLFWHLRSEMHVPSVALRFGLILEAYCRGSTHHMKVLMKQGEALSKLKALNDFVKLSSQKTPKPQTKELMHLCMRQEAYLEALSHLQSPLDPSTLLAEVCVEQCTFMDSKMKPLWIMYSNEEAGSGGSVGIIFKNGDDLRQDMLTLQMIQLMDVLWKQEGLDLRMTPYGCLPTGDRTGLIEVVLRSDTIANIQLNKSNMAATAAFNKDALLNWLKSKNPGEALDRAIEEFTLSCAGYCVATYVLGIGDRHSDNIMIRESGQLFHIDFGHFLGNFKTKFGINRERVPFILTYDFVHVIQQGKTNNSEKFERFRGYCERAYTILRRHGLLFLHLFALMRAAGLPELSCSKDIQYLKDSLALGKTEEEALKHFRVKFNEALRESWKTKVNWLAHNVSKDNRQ
T1 sequence (P27986 whole entry partner): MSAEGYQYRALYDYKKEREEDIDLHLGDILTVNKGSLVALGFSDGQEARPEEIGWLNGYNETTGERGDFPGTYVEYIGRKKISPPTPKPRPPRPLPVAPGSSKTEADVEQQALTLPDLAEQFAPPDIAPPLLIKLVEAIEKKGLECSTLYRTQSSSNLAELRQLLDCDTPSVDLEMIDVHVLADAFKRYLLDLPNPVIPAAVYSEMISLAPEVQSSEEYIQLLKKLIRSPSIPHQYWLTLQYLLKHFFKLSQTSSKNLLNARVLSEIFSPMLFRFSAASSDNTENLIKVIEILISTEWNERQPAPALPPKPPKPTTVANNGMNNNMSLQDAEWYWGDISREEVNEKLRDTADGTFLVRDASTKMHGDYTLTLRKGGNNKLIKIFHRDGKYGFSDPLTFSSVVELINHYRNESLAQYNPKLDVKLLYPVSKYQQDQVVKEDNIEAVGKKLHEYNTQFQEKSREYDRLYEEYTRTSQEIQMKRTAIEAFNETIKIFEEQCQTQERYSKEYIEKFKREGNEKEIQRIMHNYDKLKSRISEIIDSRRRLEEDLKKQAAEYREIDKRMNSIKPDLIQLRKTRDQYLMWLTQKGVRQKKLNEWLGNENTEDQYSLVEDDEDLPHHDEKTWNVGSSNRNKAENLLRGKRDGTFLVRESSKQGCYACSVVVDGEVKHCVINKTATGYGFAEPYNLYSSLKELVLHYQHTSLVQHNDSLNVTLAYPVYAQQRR

Row | IC50 [nM] | Structure (SMILES)
1 | 25.1 | CS(=O)(=O)c1ccc(CN2C(=O)C3COCCN3c3nc(-c4ccnc5[nH]ccc45)ncc32)cc1 (centres unmarked) [Example 155, 5-(4-(methylsulfonyl)benzyl)-2-(1H-pyrrolo[2,3-b]pyridin-4-yl)-6a,7,9,10-tetrahydro-[1,4]oxazino[3,4-h]pteridin-6(5H)-one]
2 | 15.8 | CCOC(=O)c1cncc(N2C[C@@H]3COCCN3c3nc(-c4cccc5[nH]ccc45)ncc32)c1 [Example 198, (R)-ethyl 5-(2-(1H-indol-4-yl)-6a,7,9,10-tetrahydro-[1,4]oxazino[3,4-h]pteridin-5(6H)-yl)nicotinate]
3 | 126 | O=C(CN1C[C@@H]2COCCN2c2nc(-c3cccc4[nH]ccc34)ncc21)NCc1cc[nH]n1 [Example 72, (R)-2-(2-(1H-indol-4-yl)-6a,7,9,10-tetrahydro-[1,4]oxazino[3,4-h]pteridin-5(6H)-yl)-N-((1H-pyrazol-3-yl)methyl)acetamide]
4 | 794 | c1cc(-c2ncc3c(n2)N2CCOC[C@H]2CN3c2cccc3[nH]ccc23)c2cc[nH]c2c1 [Example 193, (R)-2,5-di(1H-indol-4-yl)-5,6,6a,7,9,10-hexahydro-[1,4]oxazino[3,4-h]pteridine]
5 | 398 | Cc1ccc(S(=O)(=O)N2CC3COCCN3c3nc(-c4cccc5[nH]ccc45)ncc32)cc1 (centres unmarked) [Example 18, 2-(1H-indol-4-yl)-5-tosyl-5,6,6a,7,9,10-hexahydro-[1,4]oxazino[3,4-h]pteridine]
6 | 31.6 | Cc1ccccc1CNC(=O)CN1CC2COCCN2c2nc(-c3cccc4[nH]ccc34)ncc21 (centres unmarked) [Example 41, 2-(2-(1H-indol-4-yl)-6a,7,9,10-tetrahydro-[1,4]oxazino[3,4-h]pteridin-5(6H)-yl)-N-(2-methylbenzyl)acetamide]
7 | 3160 | N[C@H]1CC[C@H](CN2C[C@@H]3COCCN3c3nc(-c4cccc5[nH]ccc45)ncc32)CC1 [Example 197]
8 | 1.58 | CCc1nnc(C(C)N2C[C@@H]3COCCN3c3nc(-c4cccc5[nH]ccc45)ncc32)o1 (stereo partly drawn) [Example 178, (6aR)-5-(1-(5-ethyl-1,3,4-oxadiazol-2-yl)ethyl)-2-(1H-indol-4-yl)-5,6,6a,7,9,10-hexahydro-[1,4]oxazino[3,4-h]pteridine]
9 | 3.16 | c1cc(-c2ncc3c(n2)N2CCOC[C@H]2CN3CCC2OCCO2)c2cc[nH]c2c1 [Example 194, (R)-5-(2-(1,3-dioxolan-2-yl)ethyl)-2-(1H-indol-4-yl)-5,6,6a,7,9,10-hexahydro-[1,4]oxazino[3,4-h]pteridine]
10 | 501 | CC(C)NC(=O)CN1CC2COCCN2c2nc(-c3cccc4[nH]ccc34)ncc21 (centres unmarked) [Example 42, 2-(2-(1H-indol-4-yl)-6a,7,9,10-tetrahydro-[1,4]oxazino[3,4-h]pteridin-5(6H)-yl)-N-isopropylacetamide]
11 | 63.1 | Cc1ccc(CO)c(CN2C[C@@H]3COCCN3c3nc(-c4cccc5[nH]ccc45)ncc32)c1 [Example 166, (R)-(2-((2-(1H-indol-4-yl)-6a,7,9,10-tetrahydro-[1,4]oxazino[3,4-h]pteridin-5(6H)-yl)methyl)-4-methylphenyl)methanol]
12 | 0.794 | CS(=O)(=O)c1ccc(CN2C(=O)C3COCCN3c3nc(-c4cccc5[nH]ccc45)ncc32)cc1 (centres unmarked) [Example 123, 2-(1H-indol-4-yl)-5-(4-(methylsulfonyl)benzyl)-6a,7,9,10-tetrahydro-[1,4]oxazino[3,4-h]pteridin-6(5H)-one]
13 | 398 | O=C(CN1C[C@@H]2COCCN2c2nc(-c3cccc4[nH]ccc34)ncc21)Nc1ccncc1 [Example 203, (R)-2-(2-(1H-indol-4-yl)-6a,7,9,10-tetrahydro-[1,4]oxazino[3,4-h]pteridin-5(6H)-yl)-N-(pyridin-4-yl)acetamide]
14 | 31.6 | C[C@@H](c1ccc(Cl)cc1)N1C(=O)C2COCCN2c2nc(-c3cccc4[nH]ccc34)ncc21 (mixture of isomers) [Example 163, 5-((S)-1-(4-chlorophenyl)ethyl)-2-(1H-indol-4-yl)-6a,7,9,10-tetrahydro-[1,4]oxazino[3,4-h]pteridin-6(5H)-one]

Second part, the compound before the results:

Row | Structure (SMILES) | IC50 [nM]
15 | CS(=O)(=O)c1ccc(CN2C(=O)C3COCCN3c3nc(-c4ccc(N)c(N)c4)ncc32)cc1 (centres unmarked) [Example 131, 2-(3,4-diaminophenyl)-5-(4-(methylsulfonyl)benzyl)-6a,7,9,10-tetrahydro-[1,4]oxazino[3,4-h]pteridin-6(5H)-one] | 126
16 | CNC(=O)Nc1ccc(-c2ncc3c(n2)N2CCOC[C@@H]2C(=O)N3C2CCOCC2)cc1 [Example 159, (R)-1-methyl-3-(4-(6-oxo-5-(tetrahydro-2H-pyran-4-yl)-5,6,6a,7,9,10-hexahydro-[1,4]oxazino[3,4-h]pteridin-2-yl)phenyl)urea] | 2.51
17 | Nc1ncc(-c2ncc3c(n2)N2CCOCC2CN3)cn1 (centres unmarked) [Example 1, 5-(5,6,6a,7,9,10-hexahydro-[1,4]oxazino[3,4-h]pteridin-2-yl)pyrimidin-2-amine] | 31.6
18 | CC(=O)Nc1cccc(-c2ncc3c(n2)N2CCOCC2C(=O)N3Cc2ccc(S(C)(=O)=O)cc2)c1 (centres unmarked) [Example 101, N-(3-(5-(4-(methylsulfonyl)benzyl)-6-oxo-5,6,6a,7,9,10-hexahydro-[1,4]oxazino[3,4-h]pteridin-2-yl)phenyl)acetamide] | 316
19 | CNC(=O)c1cccc(-c2ncc3c(n2)N2CCOCC2C(=O)N3Cc2ccc(S(C)(=O)=O)cc2)c1 (centres unmarked) [Example 122, N-methyl-3-(5-(4-(methylsulfonyl)benzyl)-6-oxo-5,6,6a,7,9,10-hexahydro-[1,4]oxazino[3,4-h]pteridin-2-yl)benzamide] | 1000
20 | CS(=O)(=O)c1ccc(CN2C(=O)C3COCCN3c3nc(-c4ccc(N)nc4)ncc32)cc1 (centres unmarked) [Example 106, 2-(6-aminopyridin-3-yl)-5-(4-(methylsulfonyl)benzyl)-6a,7,9,10-tetrahydro-[1,4]oxazino[3,4-h]pteridin-6(5H)-one] | 7.94
21 | Cc1nccn1-c1ncc2c(n1)N1CCOCC1C(=O)N2Cc1ccc(S(C)(=O)=O)cc1 (centres unmarked) [Example 156, 2-(2-methyl-1H-imidazol-1-yl)-5-(4-(methylsulfonyl)benzyl)-6a,7,9,10-tetrahydro-[1,4]oxazino[3,4-h]pteridin-6(5H)-one] | 316
22 | CNC(=O)Nc1ccc(-c2ncc3c(n2)N2CCOCC2C(=O)N3Cc2ccc(Cl)cc2)cc1 (centres unmarked) [Example 89, 1-(4-(5-(4-chlorobenzyl)-6-oxo-5,6,6a,7,9,10-hexahydro-[1,4]oxazino[3,4-h]pteridin-2-yl)phenyl)-3-methylurea] | 63.1
23 | O=C(CN1C[C@@H]2COCCN2c2nc(-n3c(C(F)F)nc4ccccc43)ncc21)NCC1CCOCC1 [Example 211, (R)-2-(2-(2-(difluoromethyl)-1H-benzo[d]imidazol-1-yl)-6a,7,9,10-tetrahydro-[1,4]oxazino[3,4-h]pteridin-5(6H)-yl)-N-((tetrahydro-2H-pyran-4-yl)methyl)acetamide] | 20
24 | COc1cc(-c2ncc3c(n2)N2CCOCC2CN3)ccn1 (centres unmarked) [Example 14, 2-(2-methoxypyridin-4-yl)-5,6,6a,7,9,10-hexahydro-[1,4]oxazino[3,4-h]pteridine] | 5010
25 | CS(=O)(=O)c1ccc(CN2C(=O)C3COCCN3c3nc(-c4cnc(N)nc4)ncc32)cc1 (centres unmarked) [Example 125, 2-(2-aminopyrimidin-5-yl)-5-(4-(methylsulfonyl)benzyl)-6a,7,9,10-tetrahydro-[1,4]oxazino[3,4-h]pteridin-6(5H)-one] | 10
26 | CNC(=O)Nc1ccc(-c2ncc3c(n2)N2CCOCC2C(=O)N3Cc2ccc(S(C)(=O)=O)cc2)cc1 (centres unmarked) [Example 91, 1-methyl-3-(4-(5-(4-(methylsulfonyl)benzyl)-6-oxo-5,6,6a,7,9,10-hexahydro-[1,4]oxazino[3,4-h]pteridin-2-yl)phenyl)urea] | 0.794
27 | O=C(CN1C[C@@H]2COCCN2c2nc(-c3cccc(OC(F)F)c3)ncc21)NCC1CCOCC1 [Example 217, (R)-2-(2-(3-(difluoromethoxy)phenyl)-6a,7,9,10-tetrahydro-[1,4]oxazino[3,4-h]pteridin-5(6H)-yl)-N-((tetrahydro-2H-pyran-4-yl)methyl)acetamide] | 794
28 | CNC(=O)Nc1ccc(-c2ncc3c(n2)N2CCOCC2CN3Cc2ccc(S(C)(=O)=O)cc2Cl)cc1 (centres unmarked) [Example 6, 1-(4-(5-(2-chloro-4-(methylsulfonyl)benzyl)-5,6,6a,7,9,10-hexahydro-[1,4]oxazino[3,4-h]pteridin-2-yl)phenyl)-3-methylurea] | 10
29 | CNC(=O)c1ccc(-c2ncc3c(n2)N2CCOCC2C(=O)N3Cc2ccc(S(C)(=O)=O)cc2)cn1 (centres unmarked) [Example 109, N-methyl-5-(5-(4-(methylsulfonyl)benzyl)-6-oxo-5,6,6a,7,9,10-hexahydro-[1,4]oxazino[3,4-h]pteridin-2-yl)picolinamide] | 7940

— US8791107B2, “N-substituted oxazinopteridines and oxazinopteridinones” (Takeda Pharmaceutical Company Limited, priority 2011, dated 2014)
